The values below come from patent US20100137399A1, “PREVENTIVE AND/OR THERAPEUTIC AGENT FOR URINE COLLECTION DISORDER ACCOMPANYING LOWER URINARY TRACT OBSTRUCTION” (KISSEI PHARMACEUTICAL CO., LTD., priority 2004, published 2010).

Molecules are shown by their SMILES. Structures can show the parent of a compound that is named as a salt.

In assay [1] the test system is patients with urinary disturbance associated with benign prostatic hyperplasia. In words: Placebo-control parallel groups-comparing double blind clinical trial, I-PSS changes from pre-administration. In kind it is in vivo, human. The settings on record: for I-PSS (irritative symptom) Changes / I-PSS (obstructive symptom) Changes / Total I-PSS Changes: oral, 12 weeks. From the text: Using patients with urinary disturbance associated with benign prostatic hyperplasia as the subjects, the clinical effects of silodosin and tamsulosin hydrochloride were examined by a placebo-control parallel groups-comparing double blind trial, using changes in the total I-PSS (International Prostate Symptom Score) from pre-administration as the primary endpoint. The I-PSS consists of 3 items of irritative symptoms representing the symptoms at the time of storing (Nocturia, Urgency and Urination within 2 hours) and 4 items of obstructive symptoms representing the symptoms at the time of voiding (Sensation of residual urine, Intermittency of urinary stream, Power of urinary stream and Straining during urination), prepared for use in the judgment of various therapeutic effects on the dysuria associated with benign prostatic hyperplasia, but this is not specific to prostatic hyperplasia and can also be used for the judgment of therapeutic effects on female dysuria and the like (Non-patent Reference 1).
Effects of silodosin (4 mg per once, twice a day) and tamsulosin hydrochloride (0.2 mg per once, once a day) on the storage disorder were examined by the following method.
Patients to be tested: 455 patients with dysuria associated with benign prostatic hyperplasia
Administration method: oral administration for 12 weeks
Primary endpoints: total score of I-PSS, I-PSS irritative symptom score and I-PSS obstructive symptom score
Analysis method: all of the finally evaluated cases were stratified into groups of patients having a total score of less than 6 and that of 6 or more regarding the “Urination within 2 hours” and “Urgency” of I-PSS, and average values of respective changes in the total score of I-PSS, I-PSS irritative symptom score and I-PSS obstructive symptom score before and after the administration were calculated for each group.
Administration groups: silodosin group (116 cases having a pre-administration score of less than 6, and 58 cases having that of 6 or more), tamsulosin group (135 cases having a pre-administration score of less than 6, and 57 cases having that of 6 or more), a placebo group (61 cases having a pre-administration score of less than 6, and 28 cases having that of 6 or more)
Not at all: 0 point; Less than 1 time in 5: 1 point; Less than 1 time in 2: 2 points; About 1 time in 2: 3 points; More than 1 time in 2: 4 points; Almost always: 5 points.
None: 0 point; 1 time: 1 point; 2 times: 2 points; 3 times: 3 points; 4 times: 4 points; 5 times or more: 5 points.

Another assay addresses T1, α1B-AR subtype (Homo sapiens, UniProt P35368).
T1 sequence (P35368 1-520): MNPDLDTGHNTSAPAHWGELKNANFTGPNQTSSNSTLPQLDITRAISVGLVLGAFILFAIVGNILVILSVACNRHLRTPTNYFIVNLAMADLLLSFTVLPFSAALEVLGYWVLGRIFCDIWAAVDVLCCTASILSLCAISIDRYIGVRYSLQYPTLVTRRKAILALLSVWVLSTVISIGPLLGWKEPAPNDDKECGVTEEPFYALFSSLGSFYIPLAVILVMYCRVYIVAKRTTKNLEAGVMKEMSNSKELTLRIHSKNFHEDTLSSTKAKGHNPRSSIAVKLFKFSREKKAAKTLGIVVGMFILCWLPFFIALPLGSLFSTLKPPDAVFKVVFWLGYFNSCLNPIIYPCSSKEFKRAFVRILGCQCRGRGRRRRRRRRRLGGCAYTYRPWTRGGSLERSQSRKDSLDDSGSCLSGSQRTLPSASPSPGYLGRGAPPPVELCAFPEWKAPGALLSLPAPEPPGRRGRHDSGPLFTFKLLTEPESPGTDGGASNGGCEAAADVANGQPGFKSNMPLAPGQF
To be noted: Patent Reference 3 and Non-patent Reference 5; cited from earlier work.

The target of another assay is T2, α1A-AR subtype (Homo sapiens, UniProt P35348).
T2 sequence (P35348 1-466): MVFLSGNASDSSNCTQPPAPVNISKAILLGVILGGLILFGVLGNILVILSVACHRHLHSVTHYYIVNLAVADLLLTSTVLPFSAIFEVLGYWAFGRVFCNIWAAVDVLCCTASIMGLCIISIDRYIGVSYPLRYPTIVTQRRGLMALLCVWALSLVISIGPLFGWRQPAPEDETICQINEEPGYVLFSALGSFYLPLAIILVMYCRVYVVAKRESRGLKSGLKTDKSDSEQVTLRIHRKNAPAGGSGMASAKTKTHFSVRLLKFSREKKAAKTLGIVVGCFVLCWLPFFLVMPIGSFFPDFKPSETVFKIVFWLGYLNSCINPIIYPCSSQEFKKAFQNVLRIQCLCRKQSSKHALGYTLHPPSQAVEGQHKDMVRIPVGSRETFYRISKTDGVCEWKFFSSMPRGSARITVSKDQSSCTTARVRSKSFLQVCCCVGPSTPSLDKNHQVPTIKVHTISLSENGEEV
The settings on record: Patent Reference 3 and Non-patent Reference 5; cited from earlier work.

A further assay concerns the target T3, α1D-AR subtype (Homo sapiens, UniProt P25100).
T3 sequence (P25100 1-572): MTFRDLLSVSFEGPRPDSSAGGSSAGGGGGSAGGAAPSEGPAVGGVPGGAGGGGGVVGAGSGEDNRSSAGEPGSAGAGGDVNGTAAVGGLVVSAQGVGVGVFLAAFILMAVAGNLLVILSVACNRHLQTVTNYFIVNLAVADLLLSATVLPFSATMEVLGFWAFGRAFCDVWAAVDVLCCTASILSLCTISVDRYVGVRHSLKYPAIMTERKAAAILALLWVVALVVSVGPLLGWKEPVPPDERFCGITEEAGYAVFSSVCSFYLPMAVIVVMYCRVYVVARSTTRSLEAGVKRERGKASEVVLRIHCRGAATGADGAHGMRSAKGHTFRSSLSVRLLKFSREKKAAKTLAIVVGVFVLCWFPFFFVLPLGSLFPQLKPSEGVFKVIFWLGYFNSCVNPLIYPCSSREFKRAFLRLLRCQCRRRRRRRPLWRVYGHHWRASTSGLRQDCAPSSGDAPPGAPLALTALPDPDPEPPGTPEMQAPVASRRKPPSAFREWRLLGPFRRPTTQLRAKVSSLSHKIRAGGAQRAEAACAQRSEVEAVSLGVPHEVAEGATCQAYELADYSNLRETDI
The settings on record: Patent Reference 3 and Non-patent Reference 5; cited from earlier work.

Where [2] appears, read: Overall (all patients), average change.
[3] abbreviates: patients with pre-administration total score of "Urination within 2 hours" and "Urgency" less than 6, average change before/after administration.
Setting [4] is: pre-administration score 6 or more, average change.
[5] abbreviates: pre-administration score less than 6, average change.

Regarding `CCOc1ccccc1OCCN[C@H](C)Cc1ccc(OC)c(S(N)(=O)=O)c1` [Tamsulosin, tamsulosin hydrochloride, reference compound], the “I-PSS (irritative symptom) Changes” value in assay [1] (setting [2]) is on record as −2.1; in assay [1] (setting [4]), −3.9; in assay [1] (setting [5]), −1.3. Moreover, the results for the “I-PSS (obstructive symptom) Changes” value in assay [1] (setting [2]), in assay [1] (setting [4]) and in assay [1] (setting [5]) were −4.8, −5.2 and −4.6, respectively. Besides, the “Total I-PSS Changes” value in assay [1] (setting [2]) is −6.8; in assay [1] (setting [3]), −5.9; in assay [1] (setting [4]), −9.1.

For `C[C@H](Cc1cc2c(c(C(N)=O)c1)N(CCCO)CC2)NCCOc1ccccc1OCC(F)(F)F` [Silodosin, (−)-1-(3-hydroxypropyl)-5-((2R)-2-{[2-({2-[(2,2,2-trifluoroethyl)-oxy]phenyl}oxy)ethyl]amino}propyl)2,3-dihydro-1H-indole-7-carboxamide], the “Action upon α1B-AR subtype (in words)” value at α1B-AR subtype is “hardly acts”. For the same compound, on α1A-AR subtype, the “Action upon α1A-AR subtype (in words)” value is listed as “selectively acts” and the “Inverse agonist activity (in words)” value was “does not show inverse agonist activity”. Further, the “Action upon α1D-AR subtype (in words)” value at α1D-AR subtype is recorded as “hardly acts”. Further, in assay [1] (setting [2]), the “I-PSS (irritative symptom) Changes” value is reported as −2.5, the “I-PSS (obstructive symptom) Changes” value is −5.8 and the “Total I-PSS Changes” value is recorded as −8.3. For the same compound, the “Effect on I-PSS irritative symptom score in patients showing storage disorders (in words)” value in assay [1] (particularly patients with 6 or more total score of "Urination within 2 hours" and "Urgency" at pre-administration) is on record as “has the effect to improve I-PSS irritative symptom score”. Also, in assay [1] (setting [3]), the “Total I-PSS Changes” value is on record as −6.8. In addition, in assay [1] (setting [4]), the “I-PSS (irritative symptom) Changes” value is −4.3, the “I-PSS (obstructive symptom) Changes” value was −7.1 and the “Total I-PSS Changes” value was −11.3. In assay [1] (setting [5]), the “I-PSS (irritative symptom) Changes” value was −1.6 and the “I-PSS (obstructive symptom) Changes” value is −5.2.
